In patent US5658880A, “Sialic acid/fucose based medicaments” (Glycomed Incorporated, priority 1994, dated 1997):

Columns and labels:
L-selectin = assay: ELISA: inhibition of L-selectin-IgG chimera binding to 2,3 sLe^x glycolipid; design: species or system human
Description: (§1) An ELISA assay is preferably used that employs recombinant fusion proteins composed of extracellular portions of the human selectins joined to human immunoglobulin heavy chain CH3, CH2, and hinge regions. See, for example, Walz et al., Science (1990) 250:1132; Aruffo et al., Cell (1991) 67:35; Aruffo et al., Proc. Natl. Acad. Sci. USA. (1992) 89:2292. The assay is well known in the art, and generally consists of the following three steps:
(§2) I. 2,3 sLe^x glycolipid (25 picomole/well) was transferred into microtiter wells as solutions and then evaporated off. Excess, which remained unattached, was washed off with water. The wells were then blocked with 5% BSA at room temperature for an hour and then washed with PBS containing 1 mM calcium.
(§3) II. Preparation of "multivalent" receptor of the Selectin-lgG chimera was carried out by combining the respective chimera (1 μg/mL) with biotin labelled goat F(ab')2 anti-human IgG (Fc specific) and streptavidin-alkaline phosphatase diluted 1:1000 in 1% BSA-PBS (1 mM calcium) and incubating at 37° C. for 15 min. This allowed the soluble multivalent receptor complex to form. III. Potential inhibitors such as the compounds of formula I or II were allowed to react with the soluble receptor at 37° C. for 45 min. This test assumes that optimal binding, between the soluble phase receptor complex and the inhibitor (non natural ligand), would have occurred within this time frame. This solution was then placed in the microtiter wells that were prepared in step I. The plate was incubated at 37° C. for 45 minutes to allow the soluble receptor to bind to its natural ligand. In the presence of a strong inhibitor only a few receptors should be free to bind to the microtiter plate coated with the natural ligand.
(§4) The positive control is the signal produced by the soluble receptor when it is allowed to react with 2,3 sLe^x glycolipid in the microtiter wells in the absence of any inhibitor. This positive control was considered 100% binding. The signal produced by the receptor that had been previously treated with an inhibitor (recorded as O.D.), was divided by the signal produced by the positive control and multiplied by 100 to calculate the % receptor bound to the well in the presence of the inhibitor. The reciprocal of this number is the % inhibition.
as §1, with “was employed” for “is preferably used”, “uses” for “employs”, “USA” for “USA.”
(§5) II. Preparation of "multivalent" receptor of the Selectin-IgG chimera was carried out by combining the respective chimera 1 μg/ml) with biotin labelled goat F(ab')2 anti-human IgG (Fc specific) and streptavidin-alkaline phosphatase diluted 1:1000 in 1% BSA-PBS (1 mM calcium) and incubating at 37° C. for 15 min. This allowed the soluble multivalent receptor complex to form.
(§6) III. Potential inhibitors such as compounds of formula I or II were allowed to react with the soluble receptor at 37° C. for 45 min. This test assumes that optimal binding, between the soluble phase receptor complex and the inhibitor (non natural ligand), would have occurred within this time frame. This solution was then placed in the microtiter wells that were prepared in step I. The plate was incubated at 37° C. for 45 minutes to allow the soluble receptor to bind to its natural ligand. In the presence of a strong inhibitor only a few receptors should be free to bind to the microtiter plate coated with the natural ligand.
(§7) The positive control is the signal produced by the soluble receptor when it is allowed to react with 2,3 sLe^x glycolipid in the microtiter wells in the absence of any inhibitor. This was considered 100% binding. […]

[1] = system: neutrophil migration into the peritoneum; assay: Murine thioglycollate induced peritonitis: neutrophil migration to the peritoneal cavity; assay type: in vivo, mouse (Swiss Webster); settings: mice, tail vein injection, 3 h after thioglycollate, FIG. 7(a) and (b)
Description: The efficaciousness of 7 and 10 was shown using a murine thioglycollate induced peritonitis model. The assay materials and methods are known in the art, or are generally described by Lewinsohn, D. et al., J. Immun., 138:4313-4321 (1987), or Watson, S. et al., Nature 349:164-166 (1991). This assay measures the ability of the compounds to inhibit neutrophil migration to the peritoneal cavity, the migration being initiated by the presence of thioglycollate in the peritoneal cavity. Thioglycollate is a known and effective inflammatory agent that causes neutrophil migration into the mouse peritoneum when it is administered intraperitoneally. Lewinsohn, D. et al., J. Immun. (1987) 138:4313-4321. Briefly, female Swiss Webster mice weighing about 25 grams were injected in the tail vein with 200 μl of phosphate buffered saline (PBS) with or without the appropriate compound. The pH of the solutions was adjusted to neutrality by the addition of either NaOH or HCL and sterilized by filtration through a 0.2 μ filter. Immediately following injection with the appropriate compound or PBS, the mice were injected intraperitoneally with 1 ml of thioglycollate medium prepared as described by the manufacturer, BBL. Three hours following injection of the thioglycollate solution the mice were sacrificed by CO2 asphyxiation, and the number of cells in the peritoneum removed by lavage with 5 ml of heparinized (5 U/ml) 0.9% sodium chloride solution containing 0.1% bovine serum albumin. Cell number was determined using a Coulter Counter. The cells were prepared for counting by diluting the lavage fluid with 1:50 of a commercial physiological isotonic solution, Isoton II, and the cells lysed by adding S/P Lysing and Hemoglobin Reagent (1:100 final dilution). Cell nuclei were counted in a sized window with lower and upper limits set at 3.9 and 5.7 μm, respectively.

P-selectin = assay: ELISA: inhibition of P-selectin-IgG chimera binding to 2,3 sLe^x glycolipid; design: species or system human; settings: inhibition of binding to 2,3 sLex glycolipid
Description: as §1, §2, §3, §4
as §1, with “was employed” for “is preferably used”, “uses” for “employs”, “USA” for “USA.”
as §5, §6, §7

E-selectin = assay: ELISA: inhibition of E-selectin-IgG chimera binding to 2,3 sLe^x glycolipid; design: species or system human; settings: inhibition of binding to 2,3 sLex glycolipid
Description: as §1, §2, §3, §4
as §1, with “was employed” for “is preferably used”, “uses” for “employs”, “USA” for “USA.”
as §5, §6, §7

For `CC(OCCCCCCOC1O[C@@H](C)[C@@H](O)[C@@H](O)[C@@H]1O)C(=O)O` (stereo partly drawn) [Compound 10, 1-O-(α-β-L-Fucopyranosyl)-6-O-[(R,S)-1-Carboxyethyl]-Hexane], the “inhibition of L-selectin binding to 2,3 sLe^x glycolipid” value (L-selectin; FIG. 5 and FIG. 6, result in words) was “at all four concentrations of the compound tested there is significant inhibitory activity”, the IC50 (L-selectin; inhibition of binding to 2,3 sLex glycolipid) was 2000 to 3000 µM and the “inhibit neutrophil migration into the peritoneum” value [1] was “inhibit neutrophil migration into the peritoneum”. The IC50 (P-selectin) was ~500 µM and the IC50 (E-selectin) was 2000 to 3000 µM.
